Data published in patent US20230055705A1, “SUBSTITUTED THIOPHENE CARBOXAMIDES AND DERIVATIVES THEREOF” (Bayer Aktiengesellschaft, priority 2019, published 2023).

Legend:
[1] = LogP by HPLC on reversed phase columns (EEC directive 79/831 Annex V.A8); type: physicochemical; settings: for chromatographic logP: reversed phase HPLC columns
Description: In the above tables, measurement of LogP values was performed according to EEC directive 79/831 Annex V.A8 by HPLC (High Performance Liquid Chromatography) on reversed phase columns with the following methods: • ^[a]
Calibration was done with straight-chain alkan2-ones (with 3 to 16 carbon atoms) with known LogP values (measurement of LogP values using retention times with linear interpolation between successive alkanones). Lambda-max-values were determined using UV-spectra from 200 nm to 400 nm and the peak values of the chromatographic signals.

[2] = system: salicylate responsive promoter sequence of the PR1 (pathogenesis-related protein I) gene (AT2G14610); test: Induction of defense gene expression in Arabidopsis thaliana (PR1 promoter-GFP reporter plants); type: in vivo; settings: 3rd day after spraying, mock treated leaves set as 1.00; for fold induction at 300 ppm / fold induction at 75 ppm: Arabidopsis thaliana, 72 h, read-out: relative fluorescence value; for fold induction at 75 ppm: 75 ppm of compound
Description: Arabidopsis thaliana reporter plants containing the coding sequence of a green fluorescent protein (GFP) linked to the salicylate responsive promoter sequence of the PR1 (pathogenesis-related protein I) gene (AT2G14610) were grown for five days and then sprayed with compounds. On the 3rd day after spraying, plant fluorescence was assessed with a MacroFluo instrument from Leica Microsystems (Wetzlar, Germany). Fluorescences were quantified with the Meta-Morph Microscopy Automation & Image Analysis Software (Molecular Devices, Sunnyvale, Calif., United States). Background fluorescence in mock treated leaves was set as 1.00.

[3] = system: Colletotrichum lindemuthianum; test: In vivo preventive test on Colletotrichum lindemuthianum (Antrachnose on bean); settings: 144 h, inoculation 72 h after spraying, evaluated 6 days after inoculation, read-out: efficacy; for pest or weed control at 500 ppm: 500 ppm of active ingredient; for pest or weed control at 31 ppm: 31 ppm of active ingredient
Description: (§1) The tested active ingredients were prepared by homogenization in a mixture of acetone/Dimethyl sulfoxide/Tween®, and then diluted with water to obtain the desired active material concentration. The young plants of bean were treated by spraying the active ingredient prepared as described above. Control plants were treated only with an aqueous solution of acetone/Dimethyl sulfoxide/Tween®.
(§2) After 72 hours, the plants were contaminated by spraying the leaves with an aqueous suspension of Colletotrichum lindemuthianum spores. The contaminated bean plants were incubated for 24 hours at 20° C. and at 100% relative humidity and then for 5 days at 20° C. and at 90% relative humidity. The test was evaluated 6 days after the inoculation. 0% means an efficacy which corresponds to that of the control plants while an efficacy of 100% means that no disease was observed.
Compound CMP1 was tested in an in vivo preventive test on Colletotrichum lindemuthianum (Antrachnose on bean) in the same conditions as described in Example F.

[4] = system: Uromyces appendiculatus; test: In vivo preventive test on Uromyces appendiculatus (bean rust); settings: 240 h, evaluated 10 days after inoculation, read-out: efficacy; for pest or weed control at 125 ppm: 125 ppm of active ingredient; for pest or weed control at 500 ppm: 500 ppm of active ingredient
Description: as §1
as §2, with “Uromyces appendiculatus” for “Colletotrichum lindemuthianum”, “9” for “5”, “70-80%” for “90%”, “10” for “6”
Compounds CMP5 and CMP6 were tested in an in vivo preventive test on Uromyces appendiculatus (bean rust) in the same conditions as described in Example I.

[5] = system: Peronospora parasitica; test: In vivo preventive test on Peronospora parasitica (Crucifer downy mildew); settings: cabbage, evaluated 5 days after inoculation; for pest or weed control at 31 ppm / pest or weed control at 125 ppm / pest or weed control at 500 ppm: Hyaloperonospora parasitica, in Brassica oleracea, 120 h, read-out: efficacy; for pest or weed control at 31 ppm: 31 ppm of active ingredient; for pest or weed control at 125 ppm: 125 ppm of active ingredient
Description: as §1, with “cabbage” for “bean”
After 72 hours, the plants were contaminated by spraying the leaves with an aqueous suspension of Peronospora parasitica spores. The contaminated cabbage plants were incubated for 5 days at 20° C. and at 100% relative humidity.
The test was evaluated 5 days after the inoculation. 0% means an efficacy which corresponds to that of the control plants while an efficacy of 100% means that no disease was observed.
Compounds CMP2 and CMP3 were tested in an in vivo preventive test on Peronospora parasitica (Crucifer downy mildew) in the same conditions as described in Example G.

[6] = system: Xanthomonas campestris pv. campestris; test: In vivo preventive test on Xanthomonas campestris pv. campestris (black rot on cabbage); settings: evaluated 8 or 10 days after inoculation, read-out: efficacy; for pest or weed control at 31 ppm: 31 ppm of active ingredient; for pest or weed control at 125 ppm: 125 ppm of active ingredient
Description: The tested active ingredients were prepared by homogenization in a mixture of acetone/Dimethyl sulfoxide/Tween®, and then diluted with water to obtain the desired active material concentration.
The young plants of cabbage were treated by spraying the active ingredient prepared as described above. Control plants were treated only with an aqueous solution of acetone/Dimethyl sulfoxide/Tween®.
After 72 hours, the plants were contaminated by spraying the leaves with an aqueous bacteria suspension of Xanthomonas campestris pv. campestris. The contaminated cabbage plants were incubated for 8 or 10 days at 27° C. at 95% relative humidity.
The test was evaluated 8 or 10 days after the inoculation. 0% means an efficacy which corresponds to that of the control plants while an efficacy of 100% means that no disease was observed. […]
Compounds CMP1, CMP2, CMP3 and CMP4 were tested in an in vivo preventive test on Xanthomonas campestris pv. campestris (black rot on cabbage) in the same conditions as described in Example H.

[7] = system: Pseudomonas syringae pv. tomato; test: In vivo preventive test on Pseudomonas syringae pv. tomato (bacterial speck on tomato); settings: evaluated 5 or 6 days after inoculation, read-out: efficacy; for pest or weed control at 31 ppm: 31 ppm of active ingredient; for pest or weed control at 500 ppm: 500 ppm of active ingredient
Description: as §1, with “tomato” for “bean”
After 72 hours, the plants were contaminated by spraying the leaves with an aqueous bacteria suspension of Pseudomonas syringae pv. tomato. The contaminated tomato plants were incubated for 4 days in saturated atmosphere at 22° C. day/20° C. night—70% HR and then for 1 or 2 days at 22° C. day/20° C. night at 70-80% relative humidity.
The test was evaluated 5 or 6 days after the inoculation. 0% means an efficacy which corresponds to that of the control plants while an efficacy of 100% means that no disease was observed.
Compounds CMP1 and CMP4 were tested in an in vivo preventive test on Pseudomonas syringae pv. tomato (bacterial speck on tomato) in the same conditions as described in Example J.

[8] = method [a]: LC-UV, in an acidic range, with 0.1% formic acid in water and acetonitrile as eluent (linear gradient from 10% to 95% acetonitrile)

Row | chromatographic logP [1, 8] | Compound | fold induction at 300 ppm ([2]; 300 ppm) | pest or weed control at 500 ppm [3] [%] | pest or weed control at 125 ppm [4] [%] | pest or weed control at 500 ppm [4] [%] | pest or weed control at 31 ppm [5] [%] | pest or weed control at 125 ppm [5] [%] | pest or weed control at 500 ppm ([5]; 500 ppm of active ingredient) [%] | fold induction at 75 ppm [2] | pest or weed control at 31 ppm [7] [%] | pest or weed control at 500 ppm [7] [%] | further results
1 | 2.35 | CNC(=O)[C@H](C)NC(=O)c1sc(Cl)c(Cl)c1Cl [I.091] | > 2 | 70 to 79 | 80 to 89 | 70 to 79 | 90 to 100 | 90 to 100 | 90 to 100 | – | – | – | –
2 | – | CCNC(=O)[C@@H](NC(=O)c1sc(Cl)c(Cl)c1Cl)C(C)C [I.090] | > 2 | 90 to 100 | 80 to 89 | 90 to 100 | 90 to 100 | 90 to 100 | 90 to 100 | > 2 | 90 to 100 | 90 to 100 | pest or weed control at 31 ppm [6]: 70 to 79%
3 | 2.83 | CON(C(=O)c1sc(Cl)c(Cl)c1Cl)C(C)C(=O)O (stereo not drawn) [I.111] | > 2 | 70 to 79 | 90 to 100 | 90 to 100 | – | 80 to 89 | 90 to 100 | – | – | 80 to 89 | pest or weed control at 125 ppm [6]: 70 to 79%
4 | 2.75 | CCNC(=O)[C@H](C)NC(=O)c1sc(Cl)c(Cl)c1Cl [I.120] | > 2 | 90 to 100 | 90 to 100 | 90 to 100 | 90 to 100 | 90 to 100 | 90 to 100 | > 2 | – | – | pest or weed control at 31 ppm [6]: 80 to 89%; pest or weed control at 31 ppm [3]: 70 to 79%
5 | – | O=C(O)c1ccccc1O [Salicylic acid, reference compound] | – | – | – | – | – | – | – | – | – | – | relative fluorescence value ([2]; 300 ppm): 2.70
6 | 2.97 | CNC(=O)[C@@H](NC(=O)c1sc(Cl)c(Cl)c1Cl)C(C)C [I.096] | – | – | – | – | – | – | – | – | – | – | pest or weed control at 125 ppm [6]: 80 to 89%
7 | 4.62 | COC(=O)[C@H](C)NC(=S)c1sc(Cl)c(Cl)c1Cl [I.117] | > 2 | 90 to 100 | 90 to 100 | 90 to 100 | 90 to 100 | 90 to 100 | 90 to 100 | > 2 | 80 to 89 | 80 to 89 | pest or weed control at 31 ppm [3]: 70 to 79%
8 | – | CCOC(=O)[C@@H](NC(=O)c1sc(Cl)c(Cl)c1Cl)C(C)C [CMP6, reference compound] | – | – | – | < 40 | – | – | – | – | – | – | –
9 | – | C[C@H](NC(=O)c1sc(Cl)c(Cl)c1Cl)C(=O)O [CMP1, reference compound] | – | – | – | – | – | – | – | – | – | < 20 | pest or weed control at 31 ppm [6]: < 40%; pest or weed control at 31 ppm [3]: < 20%
10 | – | COC(=O)[C@@H](NC(=O)c1sc(Cl)c(Cl)c1Cl)C(C)C [CMP4, reference compound] | – | – | – | – | – | – | – | – | 0 | – | pest or weed control at 125 ppm [6]: 0%
11 | – | CC(C)[C@H](NC(=O)c1sc(Cl)c(Cl)c1Cl)C(=O)O [CMP5, reference compound] | – | – | – | – | – | – | – | – | – | – | pest or weed control at 8 ppm ([4]; 8 ppm): < 20%
12 | – | CCOC(=O)[C@H](C)NC(=S)c1sc(Cl)c(Cl)c1Cl [I.118] | – | – | – | – | – | – | – | – | – | – | LogP [1]: 5.21^[a]; efficacy ([5]; 500 ppm of active ingredient): 70%
13 | – | CCSC(=O)[C@@H](NC(=O)c1sc(Cl)c(Cl)c1Cl)C(C)C [I.094] | > 2 | – | – | 90 to 100 | – | – | 90 to 100 | – | – | 80 to 89 | –
14 | 4.23 | CCOC(=O)C(C)N(C(=O)c1sc(Cl)c(Cl)c1Cl)C1CC1 (stereo not drawn) [I.110] | – | – | 70 to 79 | 90 to 100 | – | – | 70 to 79 | – | – | – | pest or weed control at 31 ppm [6]: 70 to 79%; pest or weed control at 125 ppm [6]: 70 to 79%
15 | 2.53 | NC(=S)CNC(=O)c1sc(Cl)c(Cl)c1Cl [I.104, N-(2-amino-2-sulfanylideneethyl)-3,4,5-trichlorothiophene-2-carboxamide] | > 2 | 80 to 89 | 70 to 79 | 90 to 100 | 90 to 100 | 90 to 100 | 90 to 100 | > 2 | 70 to 79 | 80 to 89 | chromatographic logP ([1]; given in the preparation examples, method not marked): 2.53
16 | 4.4 | CCSC(=O)[C@H](C)NC(=O)c1sc(Cl)c(Cl)c1Cl [I.089] | > 2 | 90 to 100 | 90 to 100 | 90 to 100 | 90 to 100 | 90 to 100 | 90 to 100 | > 2 | 90 to 100 | 90 to 100 | –
